Calls of active or inactive are those of the source. No cut-off for these calls is given here.
Key:
Assay type in all cases: functional, tissue-based
[1] = target: Histamine H1 receptor (Cavia porcellus) (UniProt P31389); assay: Effect on histamine H1 receptor of the guinea-pig ileum, at 10e-5 M concentration; not significant
[2] = target: Histamine H2 receptor (Cavia porcellus) (UniProt P47747); assay: Effect on histamine H2 receptor of the guinea-pig atrium, at 10e-5 M concentration; not significant; conditions: Cardiac atrium
Histamine H3 receptor = Histamine H3 receptor (Cavia porcellus, UniProt Q9JI35); assay: Histamine H3 receptor agonist activity was assessed by the inhibition of the electrically evoked twitch response of the guinea-pig ileum.
Histamine H3 receptor, sequence (Q9JI35 whole entry): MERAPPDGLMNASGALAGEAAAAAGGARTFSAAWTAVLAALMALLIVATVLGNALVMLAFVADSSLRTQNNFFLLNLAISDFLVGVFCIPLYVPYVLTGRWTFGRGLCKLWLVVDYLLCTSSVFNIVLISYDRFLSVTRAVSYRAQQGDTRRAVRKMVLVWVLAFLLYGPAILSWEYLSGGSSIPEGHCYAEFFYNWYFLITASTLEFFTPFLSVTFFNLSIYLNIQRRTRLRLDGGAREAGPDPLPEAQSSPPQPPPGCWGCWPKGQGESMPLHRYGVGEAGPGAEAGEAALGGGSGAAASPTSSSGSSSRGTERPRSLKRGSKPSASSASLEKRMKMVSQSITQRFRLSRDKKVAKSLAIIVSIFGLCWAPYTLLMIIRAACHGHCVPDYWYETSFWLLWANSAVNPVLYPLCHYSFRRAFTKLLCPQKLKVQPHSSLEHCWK

Histamine H1 receptor (Cavia porcellus), sequence (P31389 whole entry): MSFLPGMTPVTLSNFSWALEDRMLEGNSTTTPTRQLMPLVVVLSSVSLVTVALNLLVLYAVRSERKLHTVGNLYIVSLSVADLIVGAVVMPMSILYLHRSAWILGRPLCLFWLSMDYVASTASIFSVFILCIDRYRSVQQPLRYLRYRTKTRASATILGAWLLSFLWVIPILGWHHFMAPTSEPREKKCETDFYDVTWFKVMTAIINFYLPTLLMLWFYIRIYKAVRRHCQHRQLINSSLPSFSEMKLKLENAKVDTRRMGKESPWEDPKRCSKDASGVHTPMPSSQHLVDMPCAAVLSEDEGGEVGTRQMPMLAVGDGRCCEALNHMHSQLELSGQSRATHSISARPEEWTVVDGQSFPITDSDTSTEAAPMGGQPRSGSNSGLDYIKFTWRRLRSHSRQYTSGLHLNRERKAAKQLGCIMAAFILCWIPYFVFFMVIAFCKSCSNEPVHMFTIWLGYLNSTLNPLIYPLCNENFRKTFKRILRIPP
Histamine H2 receptor (Cavia porcellus), sequence (P47747 whole entry): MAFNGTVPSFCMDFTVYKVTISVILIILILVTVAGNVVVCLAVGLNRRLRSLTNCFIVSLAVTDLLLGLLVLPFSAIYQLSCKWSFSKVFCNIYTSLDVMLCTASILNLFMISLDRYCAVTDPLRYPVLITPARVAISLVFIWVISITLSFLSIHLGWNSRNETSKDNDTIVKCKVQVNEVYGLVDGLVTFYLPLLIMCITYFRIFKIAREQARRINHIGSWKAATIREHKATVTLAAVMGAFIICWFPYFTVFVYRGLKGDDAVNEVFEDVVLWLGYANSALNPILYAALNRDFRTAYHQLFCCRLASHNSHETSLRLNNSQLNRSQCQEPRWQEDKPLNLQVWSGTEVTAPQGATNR

SMILES | Activity [1] | Activity [2] | IC50 (Histamine H3 receptor)
N=C(N)SCCc1c[nH]cn1 | inactive | inactive | 
N=C(N)SCCc1cnc[nH]1 [IMETIT] |  |  | 4.6 nM
N=C(N)CCCc1c[nH]cn1 | inactive | inactive | 1.1 nM

From ChEMBL document CHEMBL1150524, “Two novel, potent and selective histamine H3 receptor agonists” (Bioorg Med Chem Lett, 1992)
